Laboratory results as given in US20250332300A1 (priority 2024, published 2025).
Where a name gives a salt, the structure may show the parent alone. Read-outs that look alike come from different tables or passages of the source. Starred links: 1 amine or outer side, 2 acyl side, 3 side chain; linkers in the order of their positions; H or OH if unused. Positions of bridges follow the written chain, without caps; N, C: chain ends. Non-standard residues stand in square brackets, D forms with d. Residues, ends and D or L forms follow the SMILES beside them. *: point of attachment. DOTA = O=C(O)CN1CCN(CC(=O)O)CCN(CC(=O)*)CCN(CC(=O)O)CC1; Trp(5-OH) = N[C@@H](Cc1c[nH]c2ccc(O)cc12)C(=O)O; NMePhe(4-F) = CN[C@@H](Cc1ccc(F)cc1)C(=O)O; NMehPhe = CN[C@@H](CCc1ccccc1)C(=O)O; Aad = N[C@@H](CCCC(=O)O)C(=O)O; Gly(cPr) = N[C@H](C(=O)O)C1CC1; NMeK = CN[C@@H](CCCCN)C(=O)O; NMeDap = CN[C@@H](CN)C(=O)O; X6 = O=C(C[*:1])[*:2]

Tests used:
Type in all cases: binding
human HER2 (23-652) [1] = target: T1, human HER2 (23-652) (Homo sapiens, UniProt P04626); test: Surface plasmon resonance (SPR) for assessment of peptide affinity, human HER2; set-up: towards human HER2 (23-652) and mouse HER2 (23-653); made in house; settings: SPR, human HER2 extracellular domain, 25° C., 1:1 binding model; read-out: huHER2-SPR-ONC KD
Method: Each protein was immobilized either onto a SA sensorchip (Cytiva, BR-1005-31) or CM5 sensorchip (Cytiva, BR-1005-30) to a density of 800-2000 RU. […] For the assay setup the same conditions (flow rate, running buffer, peptide dilution) as described above were used. In a first step the Anti Fc IgG Ab (from Human Antibody Capture Kit, Ref. 29234600, Cytiva) was diluted into acetate pH 5.0 at 25 ug/mL and immobilized at a flow rate of 10 uL/min over 360 s to reach a density around 6000 RU. […] The peptides were tested with an association time of 280 s followed by a dissociation time of 3000 s at a flow rate of 30 uL/min. The regeneration was done using 3 M magnesium chloride regeneration solution as obtained with a contact time of 30 s at a flow rate of 10 uL/min. Curve fitting was performed using the BiacoreTM 8K evaluation software.

human HER2 (23-652) [2] = target: T1, human HER2 (23-652); test: TR-FRET competition assay for peptide potency, human HER2; set-up: towards human HER2 (23-652) and mouse HER2 (23-653); made in house; host or cells: mammalian cells; settings: read-out: huHER2 TR-FRET IC50
Method: (§1) Both proteins containing a His-, Avi-tag and biotin in Nterminus, were expressed in mammalian cells and produced in house. […] Standard assay conditions consist of 20 uL total volume in white 384-well plates (Greiner), in 10 mM HEPES buffer containing 150 mM NaCl, 3 mM EDTA, 0.05% Tween20 and 1% final DMSO. […] The ratiometric FRET assay readout is calculated from the ratio of the raw data of the two distinct fluorescence signals measured in time resolved mode (fluorescence 665 nm/fluorescence 620 nm). IC50 values were calculated with the standard Novartis in-house assay data analysis software (Helios software application, Novartis Institutes for BioMedical Research, unpublished) using the methods described in Comput. Methods. Programs. Biomed. 2006, 82, 31-37 (regression algorithms for nonlinear dose-response curve fitting).

mouse HER2 (23-653) = mouse HER2 (23-653) (Mus musculus, UniProt P70424); test: TR-FRET competition assay for peptide potency, mouse HER2; set-up: mouse HER2 (23-653) using a Cy5 labeled peptide as a probe; made in house; host or cells: mammalian cells; settings: TR-FRET competition with Cy5 labeled peptide probe, 0.1 nM mouse HER2, 24 h incubation; read-out: moHER2 TR-FRET IC50
Method: as §1

[3] = TR-FRET competition with Cy5 labeled peptide probe, 0.1 nM human HER2, 24 h incubation

Row | SMILES | Kd (human HER2 (23-652) [1]) [nM] | IC50 (human HER2 (23-652) [2]) [nM] | IC50 (mouse HER2 (23-653)) [nM] | IC50 (human HER2 (23-652) [2]; [3]) [nM]
1 | CC(=O)NCCCC[C@H]1C(=O)N[C@@H](Cc2c[nH]c3ccc(O)cc23)C(=O)N[C@@H](Cc2c[nH]c3ccccc23)C(=O)N[C@@H](C2CC2)C(=O)N(C)[C@H](C(=O)N(C)[C@@H](Cc2ccc(F)cc2)C(=O)N[C@@H](CCCCNC(=O)CC[C@H](C(=O)O)N2CCN(CC(=O)O)CCN(CC(=O)O)CCN(CC(=O)O)CC2)C(N)=O)CNC(=O)CCC[C@H](NC(C)=O)C(=O)N[C@@H](Cc2ccc(O)cc2)C(=O)N[C@@H](CO)C(=O)N(C)[C@@H](CCc2ccccc2)C(=O)N1C [Example B12] | < 0.1 | < 0.1 | < 0.1 | 
2 | CC(=O)N[C@H]1CCCC(=O)NC[C@@H](C(=O)N(C)[C@@H](Cc2ccc(F)cc2)C(=O)N[C@@H](CCCCNC(=O)CN2CCN(CC(=O)O)CCN(CC(=O)O)CCN(CC(=O)O)CC2)C(N)=O)N(C)C(=O)[C@H](C2CC2)NC(=O)[C@H](Cc2c[nH]c3ccccc23)NC(=O)[C@H](Cc2c[nH]c3ccc(O)cc23)NC(=O)[C@H](CCCCNC(=O)CO)N(C)C(=O)[C@H](CCc2ccccc2)N(C)C(=O)[C@H](CO)NC(=O)[C@H](Cc2ccc(O)cc2)NC1=O [Example C20] |  |  | 0.3 | 0.1
3 | CC(=O)NCCCC[C@H]1C(=O)N[C@@H](Cc2c[nH]c3ccc(O)cc23)C(=O)N[C@@H](Cc2c[nH]c3ccccc23)C(=O)N[C@@H](C2CC2)C(=O)N(C)[C@H](C(=O)N(C)[C@@H](Cc2ccc(F)cc2)C(=O)N[C@@H](CCCCNC(=O)CN2CCN(CC(=O)O)CCN(CC(=O)O)CCN(CC(=O)O)CC2)C(N)=O)CNC(=O)CCC[C@H](N)C(=O)N[C@@H](Cc2ccc(O)cc2)C(=O)N[C@@H](CO)C(=O)N(C)[C@@H](CCc2ccccc2)C(=O)N1C [Example C18] | 0.1 |  | 0.6 | 0.1
4 | CC(=O)NCCCC[C@H]1C(=O)N[C@@H](Cc2c[nH]c3ccc(O)cc23)C(=O)N[C@@H](Cc2c[nH]c3ccccc23)C(=O)N[C@@H](C2CC2)C(=O)N(C)[C@H](C(=O)N(C)[C@@H](Cc2ccc(F)cc2)C(=O)N[C@@H](CCCCNC(=O)CN2CCN(CC(=O)O)CCN(CC(=O)O)CCN(CC(=O)O)CC2)C(N)=O)CNC(=O)CCC[C@H](NC(C)=O)C(=O)N[C@H](Cc2ccc(O)cc2)C(=O)N[C@H](CO)C(=O)N(C)[C@@H](CCc2ccccc2)C(=O)N1C [Example C3] |  |  | > 10000 | > 9500
5 | CC(=O)NCCCC[C@H]1C(=O)N[C@@H](Cc2c[nH]c3ccc(O)cc23)C(=O)N[C@@H](Cc2c[nH]c3ccccc23)C(=O)N[C@@H](C2CC2)C(=O)N(C)[C@H](C(=O)N(C)[C@@H](Cc2ccc(F)cc2)C(=O)N[C@@H](CCCCN)C(N)=O)CNC(=O)CCC[C@H](NC(C)=O)C(=O)N[C@H](Cc2ccc(O)cc2)C(=O)N[C@H](CO)C(=O)N(C)[C@@H](CCc2ccccc2)C(=O)N1C [Example A48, TFA salt] |  | 8300 | > 10000 | 
6 | CC(=O)NCCCC[C@H]1C(=O)N[C@@H](Cc2c[nH]c3ccc(O)cc23)C(=O)N[C@@H](Cc2c[nH]c3ccccc23)C(=O)N[C@@H](C2CC2)C(=O)N(C)[C@H](C(=O)N(C)[C@@H](Cc2ccc(F)cc2)C(N)=O)CNC(=O)CCC[C@H](NC(=O)CN2CCN(CC(=O)O)CCN(CC(=O)O)CCN(CC(=O)O)CC2)C(=O)N[C@@H](Cc2ccc(O)cc2)C(=O)N[C@@H](CO)C(=O)N(C)[C@@H](CCc2ccccc2)C(=O)N1C [Example C8] ({DOTA}-[Aad]YS[NMehPhe][NMeK](Ac)[Trp(5-OH)]W[Gly(cPr)][NMeDap][NMePhe(4-F)]-NH2; lactam 1-9) |  |  | 3.3 | 2.1
7 | COCCOCCOCCOCCOCCOCCOCCOCCOCCOCCOCCOCCC(=O)N[C@H]1CCCC(=O)NC[C@@H](C(=O)N(C)[C@@H](Cc2ccc(F)cc2)C(=O)N[C@@H](CCCCNC(=O)c2ccc(F)nc2)C(N)=O)N(C)C(=O)[C@H](C2CC2)NC(=O)[C@H](Cc2c[nH]c3ccccc23)NC(=O)[C@H](Cc2c[nH]c3ccc(O)cc23)NC(=O)[C@H](CCCCNC(C)=O)N(C)C(=O)[C@H](CCc2ccccc2)N(C)C(=O)[C@H](CO)NC(=O)[C@H](Cc2ccc(O)cc2)NC1=O [Example F3] | < 0.1 | < 0.1 | 0.3 | 
8 | CCCCCCCCCCCC(CCCCCCCCCCC(=O)O)(C(=O)O)C(=O)NCCOCCOCCOCCOCCOCCOCCOCCOCCOCCOCCOCCOCCOCCOCCOCCOCCOCCOCCOCCOCCOCCOCCOCCOCCC(=O)N[C@H]1CCCC(=O)NC[C@@H](C(=O)N(C)[C@@H](Cc2ccc(F)cc2)C(=O)N[C@@H](CCCCNC(=O)CN2CCN(CC(=O)O)CCN(CC(=O)O)CCN(CC(=O)O)CC2)C(N)=O)N(C)C(=O)[C@H](C2CC2)NC(=O)[C@H](Cc2c[nH]c3ccccc23)NC(=O)[C@H](Cc2c[nH]c3ccc(O)cc23)NC(=O)[C@H](CCCCNC(C)=O)N(C)C(=O)[C@H](CCc2ccccc2)N(C)C(=O)[C@H](CO)NC(=O)[C@H](Cc2ccc(O)cc2)NC1=O (stereo partly shown) [Example G1] | 0.7 |  | 3.8 | 1
9 | CC(=O)NCCCC[C@H]1C(=O)N[C@@H](Cc2c[nH]c3ccc(O)cc23)C(=O)N[C@@H](Cc2c[nH]c3ccccc23)C(=O)N[C@@H](C2CC2)C(=O)N(C)[C@H](C(=O)N(C)[C@@H](Cc2ccc(F)cc2)C(=O)N[C@@H](CCCCNC(=O)CN2CCN(CC(=O)O)CCN(CC(=O)O)CCN(CC(=O)O)CC2)C(N)=O)CNC(=O)CCC[C@H](NC(=O)CC(=O)O)C(=O)N[C@@H](Cc2ccc(O)cc2)C(=O)N[C@@H](CO)C(=O)N(C)[C@@H](CCc2ccccc2)C(=O)N1C [Example C10] | < 0.1 |  | < 0.1 | < 0.1
10 | CC(=O)NCCCC[C@H]1C(=O)N[C@@H](Cc2c[nH]c3ccc(O)cc23)C(=O)N[C@@H](Cc2c[nH]c3ccccc23)C(=O)N[C@@H](C2CC2)C(=O)N(C)[C@H](C(=O)N(C)[C@@H](Cc2ccc(F)cc2)C(=O)N[C@@H](CCCCNC(=O)CCC(C(=O)O)N2CCN(CC(=O)O)CCN(CC(=O)O)CC2)C(N)=O)CNC(=O)CCC[C@H](NC(C)=O)C(=O)N[C@@H](Cc2ccc(O)cc2)C(=O)N[C@@H](CO)C(=O)N(C)[C@@H](CCc2ccccc2)C(=O)N1C (single isomer, unassigned) [Example C34] | < 0.1 |  | < 0.1 | < 0.1
11 | CC(=O)NCCCC[C@H]1C(=O)N[C@@H](Cc2c[nH]c3ccc(O)cc23)C(=O)N[C@@H](Cc2c[nH]c3ccccc23)C(=O)N[C@@H](C2CC2)C(=O)N(C)[C@H](C(=O)N(C)[C@@H](Cc2ccc(F)cc2)C(=O)N[C@@H](CCCCNC(=O)CN2CCN(CC(=O)O)CCN(CC(=O)O)CCN(CC(=O)O)CC2)C(N)=O)CNC(=O)COC[C@H](NC(C)=O)C(=O)N[C@@H](Cc2ccc(O)cc2)C(=O)N[C@@H](CO)C(=O)N(C)[C@@H](CCc2ccccc2)C(=O)N1C [Example C16] (Ac-SYS[NMehPhe][NMeK](Ac)[Trp(5-OH)]W[Gly(cPr)][NMeDap][NMePhe(4-F)]K(DOTA)-NH2; linker 1-9 via X6) | < 0.1 |  | 0.1 | < 0.1
12 | CC(=O)NCCCC[C@H]1C(=O)N[C@@H](Cc2c[nH]c3ccc(O)cc23)C(=O)N[C@@H](C)C(=O)N[C@@H](C2CC2)C(=O)N(C)[C@H](C(=O)N(C)[C@@H](Cc2ccc(F)cc2)C(=O)N[C@@H](CCCCNC(=O)CN2CCN(CC(=O)O)CCN(CC(=O)O)CCN(CC(=O)O)CC2)C(N)=O)CNC(=O)CCC[C@H](NC(C)=O)C(=O)N[C@@H](Cc2ccc(O)cc2)C(=O)N[C@@H](CO)C(=O)N(C)[C@@H](CCc2ccccc2)C(=O)N1C [Example C32] (Ac-[Aad]YS[NMehPhe][NMeK](Ac)[Trp(5-OH)]A[Gly(cPr)][NMeDap][NMePhe(4-F)]K(DOTA)-NH2; lactam 1-9) |  |  | > 10000 | 9810
13 | COCCOCCOCCOCCOCCOCCOCCOCCOCCOCCOCCOCCC(=O)N[C@H]1CCCC(=O)NC[C@@H](C(=O)N(C)[C@@H](Cc2ccc(F)cc2)C(=O)N[C@@H](CCCCNC(=O)CN2CCN(CC(=O)O)CCN(CC(=O)O)CC2)C(N)=O)N(C)C(=O)[C@H](C2CC2)NC(=O)[C@H](Cc2c[nH]c3ccccc23)NC(=O)[C@H](Cc2c[nH]c3ccc(O)cc23)NC(=O)[C@H](CCCCNC(C)=O)N(C)C(=O)[C@H](CCc2ccccc2)N(C)C(=O)[C@H](CO)NC(=O)[C@H](Cc2ccc(O)cc2)NC1=O [Example B11] | < 0.1 | < 0.1 | 0.2 | 
